Results on eleven molecules are retold here after article PMC6155626 (Molecules : A Journal of Synthetic Chemistry and Natural …, 2016).

Each structure is given as a SMILES string. Values after ≈ are worked out from the molar mass of the structure shown. Values joined by “and” are separate entries in the source; they are usually repeats but may differ in a detail not shown here. Equal values may be shown once. Read-outs that look alike come from different tables or passages of the source.

Data set [1] relates to Xanthomonas oryzae pv. oryzae. To be noted: X. oryzae; previously reported analog, X = CH2; cited from earlier work.
For data set [2], the system named is Xanthomonas oryzae pv. oryzae. In words: microbe, parasite or virus in culture. Format: cell-based. The note with it: for inhibition at 100 µg/mL: read-out: Inhibition rate, X. oryzae, 100 μg/mL, average of three replicates; for inhibition at 200 µg/mL: read-out: Inhibition rate, X. oryzae, 200 μg/mL, average of three replicates; for Inhibition rate: average of three replicates.

Data set [3] deals with Ralstonia solanacearum. Description: microbe, parasite or virus in culture. Format: cell-based. The note with it: for EC50 / Inhibition rate: R. solanacearum; for inhibition at 100 µg/mL / inhibition at 200 µg/mL: read-out: Inhibition rate; for Inhibition rate: average of three replicates.
For data set [4], the system named is Xanthomonas axonopodis pv. citri. Description: microbe, parasite or virus in culture. Format: cell-based. The note with it: for inhibition at 100 µg/mL / inhibition at 200 µg/mL: read-out: Inhibition rate.
In data set [5] the test system is X. oryzae in rice plant. The data set is classed as in vivo, Xanthomonas oryzae pv. oryzae. To be noted: 200 μg/mL, 14 days after spraying.
The subject of data set [6] is tobacco leaves. To be noted: for Necrosis (lesion diameter) on tobacco leaves: Nicotiana benthamiana (tobacco).
The test system of data set [7] is rice seeds (Fengyou Xiangzhan).
[8] abbreviates: 50 to 300 μM, four days after inoculation.
[9] abbreviates: Fengyou Xiangzhan, rice, in vivo.

As usually defined, the EC50 is the concentration that produces a half-maximal response. For `CS(=O)(=O)c1nnc(Cc2ccc(Cl)cc2)o1` [C00001 (R = 4-Cl, X = CH2)], the EC50 in data set [1] is on record as 12.23 ± 1.45 ^15 μg/mL.
As to `CS(=O)(=O)c1nnc(Cc2ccc(F)cc2)o1` [C00001 (R = F, X = CH2), 2-(4-fluorobenzyl)-5-(methylsulfonyl)-1,3,4-oxadiazole], the EC50 in data set [1] was 1.07 ± 0.68 ^15 μg/mL.
The term melting point denotes the temperature of the solid-liquid transition. With `CS(=O)(=O)c1nnc(COc2ccc(F)cc2)o1` [Compound 5I-1, 2-(4-Fluorophenoxymethyl)-5-(methylsulfonyl)-1,3,4-oxadiazole], the melting point lay in the range of 108 to 110 °C. In data set [2] (Xanthomonas oryzae), it took 0.45 ± 0.06 µg/mL (≈ 1.65 µM) to reach a half-maximal effect (EC50), the inhibition at 100 µg/mL came out at 100% and the inhibition at 200 µg/mL was 100%. In data set [3], this molecule yielded a concentration for a half-maximal effect (EC50) of 1.97 ± 0.23 µg/mL (≈ 7.24 µM). In data set [3] (Ralstonia solanacearum), a half-maximal response (EC50) required 1.67 µg/mL (≈ 6.13 µM), the inhibition at 100 µg/mL was 100% and the inhibition at 200 µg/mL worked out at 100%. Besides, in data set [4] (Xanthomonas axonopodis), the response was half-maximal at 80.5 ± 5.38 µg/mL (≈ 296 µM) (EC50), the inhibition at 100 µg/mL came to 72% and the inhibition at 200 µg/mL was found to be 80%. In data set [5], the “Disease Index” value is 15.6; the Morbidity came out at 100.0%; the “Protective Efficiency” value was 90.4% and 90.4 ± 2.8%. For the same molecule, the “Phytotoxic effect on tobacco plant (in words)” value (from here on “Phytotoxic effect”) in data set [6] (setting [8]) is reported as “no apparently phytotoxicity”. In addition, in data set [6] (in vivo), the “Necrosis (lesion diameter) on tobacco leaves” value (“Necrosis (lesion diameter)” below) was 0.2–0.3 cm and the “Phytotoxic effect” value is on record as “no or negligible phytotoxic effect”. In data set [7] (setting [9]), the “Phenotypic effect on rice seedlings, root growth and shoot development (in words)” value (from here on “Phenotypic effect on rice seedlings”) was “barely effected root growth or inhibited shoot development at concentration 1–100 μM”. In addition, the “Phenotypic effect on rice seedlings” value in data set [7] (concentration (1–300 μM)) is “no apparently phytotoxicity”.
In turn, `CS(=O)(=O)c1nnc(COc2ccc(Cl)cc2)o1` [Compound 5I-2, 2-((4-Chlorophenoxy)methyl)-5-(methylsulfonyl)-1,3,4-oxadiazole] had a melting point of 113 to 114 °C. Also, in data set [2] (Xanthomonas oryzae), a half-maximal response (EC50) required 1.44 ± 0.18 µg/mL (≈ 4.99 µM), the inhibition at 100 µg/mL is 100% and the inhibition at 200 µg/mL turned out to be 100%. In addition, in data set [3] (Ralstonia solanacearum), the concentration for a half-maximal effect (EC50) is 13.4 ± 1.54 µg/mL (≈ 46.5 µM), the inhibition at 100 µg/mL came out at 100% and the inhibition at 200 µg/mL amounted to 100%. Further, in data set [4] (Xanthomonas axonopodis), a half-maximal response (EC50) required 31.4 ± 3.56 µg/mL (≈ 109 µM), the inhibition at 100 µg/mL stood at 76% and the inhibition at 200 µg/mL stood at 88%. Besides, in data set [5], the “Disease Index” value is recorded as 23.8; the Morbidity is listed as 100.0%; the “Protective Efficiency” value is 77.7% and 77.7 ± 3.4%. Further, in data set [6] (setting [8]), the “Phytotoxic effect” value is listed as “no apparently phytotoxicity”. In addition, in data set [6] (in vivo), the “Necrosis (lesion diameter)” value was 0.2–0.3 cm and the “Phytotoxic effect” value is given as “no or negligible phytotoxic effect”. Also, in data set [7] (concentration (1–300 μM)), the “Phenotypic effect on rice seedlings” value was “no apparently phytotoxicity”. The “Phenotypic effect on rice seedlings” value in data set [7] (in vivo) is recorded as “predominantly inhibited root growth while allowing moderate shoot development”.
With `CS(=O)(=O)c1nnc(COc2ccc(Cl)cc2Cl)o1` [Compound 5I-4, 2-((2,4-Dichlorophenoxy)methyl)-5-(methylsulfonyl)-1,3,4-oxadiazole], in data set [2] (Xanthomonas oryzae), a half-maximal effect (EC50) was put at 0.72 ± 0.15 µg/mL (≈ 2.23 µM), the inhibition at 100 µg/mL worked out at 100% and the inhibition at 200 µg/mL was 100%. Further, in data set [3] (Ralstonia solanacearum), a half-maximal response (EC50) required 20.5 ± 1.56 µg/mL (≈ 63.5 µM), the inhibition at 100 µg/mL was 100% and the inhibition at 200 µg/mL was 100%. For the same molecule, in data set [4] (Xanthomonas axonopodis), the concentration for a half-maximal effect (EC50) came out at 49 ± 2.34 µg/mL (≈ 152 µM), the inhibition at 100 µg/mL is 48% and the inhibition at 200 µg/mL came out at 69%. In addition, in data set [5], the Morbidity is listed as 100.0%. In data set [6] (in vivo), the “Necrosis (lesion diameter)” value is given as 0.2–0.3 cm and the “Phytotoxic effect” value is given as “no or negligible phytotoxic effect”. Further, the “Phenotypic effect on rice seedlings” value in data set [7] (setting [9]) was “severely inhibited both root growth and shoot development even at the lowest concentration 1 μM”. The “Phenotypic effect on rice seedlings” value in data set [7] (concentration (1–300 μM)) was “highly suppressed both root and shoot development”.
With `O=S(=O)(Cc1ccccc1)c1nnc(COc2ccc(F)cc2)s1` [Compound 5II-8, 2-(Benzylsulfonyl)-5-((4-fluorophenoxy)methyl)-1,3,4-thiadiazole], the melting point lay within 132 to 134 °C. Moreover, in data set [2] (Xanthomonas oryzae), the inhibition at 100 µg/mL came to 8% and the inhibition at 200 µg/mL is 24%. In data set [3] (Ralstonia solanacearum), the inhibition at 100 µg/mL turned out to be 10% and the inhibition at 200 µg/mL was determined as 30%. Moreover, in data set [4] (Xanthomonas axonopodis), the inhibition at 100 µg/mL was found to be 21% and the inhibition at 200 µg/mL was found to be 24%.
Regarding `O=S(=O)(Cc1ccccc1)c1nnc(COc2ccc(Cl)cc2)s1` [Compound 5II-9, 2-(Benzylsulfonyl)-5-((4-chlorophenoxy)methyl)-1,3,4-thiadiazole], the melting point lay in the range of 140 to 141 °C. Further, in data set [2] (Xanthomonas oryzae), the inhibition at 100 µg/mL came out at 14% and the inhibition at 200 µg/mL came out at 19%. For the same molecule, in data set [3] (Ralstonia solanacearum), the inhibition at 100 µg/mL came out at 18% and the inhibition at 200 µg/mL was 17%. Moreover, in data set [4] (Xanthomonas axonopodis), the inhibition at 100 µg/mL turned out to be 23% and the inhibition at 200 µg/mL stood at 14%.
For the molecule `O=S(=O)(Cc1ccccc1)c1nnc(COc2ccc(Br)cc2)s1` [Compound 5II-10, 2-(Benzylsulfonyl)-5-((4-bromophenoxy)methyl)-1,3,4-thiadiazole], the melting point was 147 to 148 °C. In data set [2] (Xanthomonas oryzae), the inhibition at 100 µg/mL amounted to 0% and the inhibition at 200 µg/mL amounted to 10%. In addition, in data set [3] (Ralstonia solanacearum), the inhibition at 100 µg/mL was found to be 1% and the inhibition at 200 µg/mL worked out at 11%. In addition, in data set [4] (Xanthomonas axonopodis), the inhibition at 100 µg/mL turned out to be 8% and the inhibition at 200 µg/mL came out at 5%.
As for `O=S(=O)(Cc1ccccc1)c1nnc(COc2ccc(Cl)cc2Cl)s1` [Compound 5II-11, 2-(Benzylsulfonyl)-5-((2,4-dichlorophenoxy)methyl)-1,3,4-thiadiazole], the melting point is 124 to 125 °C. Further, in data set [2] (Xanthomonas oryzae), the inhibition at 100 µg/mL was found to be 14% and the inhibition at 200 µg/mL came to 37%. Further, in data set [3] (Ralstonia solanacearum), the inhibition at 100 µg/mL came out at 26% and the inhibition at 200 µg/mL is 27%. In data set [4] (Xanthomonas axonopodis), the inhibition at 100 µg/mL stood at 32% and the inhibition at 200 µg/mL is 38%.
For the molecule `Cc1cc(Cl)ccc1OCc1nnc(S(=O)(=O)Cc2ccccc2)s1` [Compound 5II-12, 2-(Benzylsulfonyl)-5-((4-chloro-2-methylphenoxy)methyl)-1,3,4-thiadiazole], the melting point fell in the range of 125 to 126 °C. For the same molecule, in data set [2] (Xanthomonas oryzae), the inhibition at 100 µg/mL was determined as 0% and the inhibition at 200 µg/mL was 5%. Besides, in data set [3] (Ralstonia solanacearum), the inhibition at 100 µg/mL was 0% and the inhibition at 200 µg/mL was 0%. Also, in data set [4] (Xanthomonas axonopodis), the inhibition at 100 µg/mL was 33% and the inhibition at 200 µg/mL turned out to be 10%.
Regarding `Nc1nnc([S-])s1.Nc1nnc([S-])s1.[Cu+2]` [Thiodiazole-copper, 2-amino-5-mercapto-1,3,4-thiadiazole-copper, reference compound], the EC50 in data set [2] (X. oryzae) was 121.82 ± 3.59 µg/mL; in data set [3], over 200 µg/mL; in data set [4] it was 107.04 ± 1.96 µg/mL. Moreover, the Inhibition rate in data set [2] (X. oryzae, 100 μg/mL) was 35%; in data set [2] (X. oryzae, 200 μg/mL) it was 69%; in data set [3] (100 μg/mL), 35%; in data set [3] (200 μg/mL), 50%; in data set [4], 65% and 47%. Besides, the “Disease Index” value in data set [5] was 55.6. Further, the Morbidity in data set [5] is given as 100.0%. For the same molecule, the results for the “Protective Efficiency” value in data set [5] and in data set [5] (listed as Thiadiazole-copper) were 32.0 ± 3.0% and 32.0%, respectively.
